Laboratory results reported in patent US20250122218A1, “MODULATORS OF CYSTIC FIBROSIS TRANSMEMBRANE CONDUCTANCE REGULATOR” (Vertex Pharmaceuticals Incorporated, priority 2022, published 2025).

Target: T1, CFTR in F508del/MF-HBE cells (Homo sapiens, UniProt P13569, DEL508-508)
T1 construct: human bronchial epithelial (HBE) cells derived from CF subjects heterozygous for F508del and a minimal function CFTR mutation; endogenous in cells; host or cells: primary human bronchial epithelial cells from CF subjects (F508del/MF-HBE)
T1 sequence (P13569 with tags, fused parts or gaps DEL508-508): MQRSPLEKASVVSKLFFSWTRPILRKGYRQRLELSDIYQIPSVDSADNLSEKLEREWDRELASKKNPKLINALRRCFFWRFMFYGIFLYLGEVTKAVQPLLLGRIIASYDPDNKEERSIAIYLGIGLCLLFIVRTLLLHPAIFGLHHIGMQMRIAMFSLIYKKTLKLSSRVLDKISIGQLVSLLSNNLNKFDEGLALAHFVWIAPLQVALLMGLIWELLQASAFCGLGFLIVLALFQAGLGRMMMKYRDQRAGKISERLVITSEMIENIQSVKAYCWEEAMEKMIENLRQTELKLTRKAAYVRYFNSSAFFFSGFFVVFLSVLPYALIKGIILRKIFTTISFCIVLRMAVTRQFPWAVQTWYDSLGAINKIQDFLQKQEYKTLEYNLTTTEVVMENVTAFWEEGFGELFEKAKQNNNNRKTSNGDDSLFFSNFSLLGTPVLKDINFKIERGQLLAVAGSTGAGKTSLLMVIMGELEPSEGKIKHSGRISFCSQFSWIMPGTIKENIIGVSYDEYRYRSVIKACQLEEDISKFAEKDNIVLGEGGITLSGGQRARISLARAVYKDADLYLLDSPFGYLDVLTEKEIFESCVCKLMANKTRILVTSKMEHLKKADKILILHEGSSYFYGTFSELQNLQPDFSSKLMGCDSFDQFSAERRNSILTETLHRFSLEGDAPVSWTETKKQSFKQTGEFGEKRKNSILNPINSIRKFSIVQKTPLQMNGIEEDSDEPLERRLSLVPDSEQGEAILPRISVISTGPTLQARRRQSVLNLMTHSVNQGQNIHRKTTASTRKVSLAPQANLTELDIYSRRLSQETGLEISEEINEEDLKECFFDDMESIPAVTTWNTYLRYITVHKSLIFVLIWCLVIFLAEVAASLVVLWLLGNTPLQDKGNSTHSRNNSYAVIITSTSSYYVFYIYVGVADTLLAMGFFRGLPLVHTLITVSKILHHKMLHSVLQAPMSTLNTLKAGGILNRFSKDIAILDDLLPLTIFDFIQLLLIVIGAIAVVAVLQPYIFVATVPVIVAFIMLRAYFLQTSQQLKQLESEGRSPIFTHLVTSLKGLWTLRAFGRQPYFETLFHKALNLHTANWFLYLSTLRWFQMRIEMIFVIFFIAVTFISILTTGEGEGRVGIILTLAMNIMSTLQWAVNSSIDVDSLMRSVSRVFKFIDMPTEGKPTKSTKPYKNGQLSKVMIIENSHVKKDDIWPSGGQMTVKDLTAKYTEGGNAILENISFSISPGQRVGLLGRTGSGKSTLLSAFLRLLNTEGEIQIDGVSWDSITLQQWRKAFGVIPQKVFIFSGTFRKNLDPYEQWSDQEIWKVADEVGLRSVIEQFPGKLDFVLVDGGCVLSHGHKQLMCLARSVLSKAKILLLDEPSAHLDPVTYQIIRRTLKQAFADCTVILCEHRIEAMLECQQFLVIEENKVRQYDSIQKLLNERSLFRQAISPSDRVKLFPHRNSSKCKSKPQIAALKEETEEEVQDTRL
Experiment: Ussing chamber assay of CFTR-mediated short-circuit currents (identification of potentiator compounds)
Type: cell-based
Settings: potentiator incubated 18-24 hours at 37° C. in combination with 10 μM corrector, in the presence of 20% human serum, CFTR-mediated ISC
How it was run: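 F508del/MF-HBE cultures were preincubated 18-24 h at 37° C with potentiator plus 10 μM of a fixed corrector compound in 20% human serum; compounds were kept present during measurement. ISC was recorded under voltage clamp (0 mV, 37° C, amiloride apical) and taken as the 20 μM forskolin peak minus the current after inhibitor cocktail.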

| Structure (SMILES) | EC50 |
| --- | --- |
| Nc1cc(C(F)(F)F)c2nc1-c1nnc(o1)[C@@](O)(C(F)(F)F)CCCCCN(C1CCC(F)(F)CC1)C2=O [Compound 91, (6R)-17-Amino-12-(4,4-difluorocyclohexyl)-6-hydroxy-6,15-bis (trifluoromethyl)-19-oxa-3,4,12,18-tetrazatricyclo [12.3.1.12,5] nonadeca-1(18),2,4,14,1 6-pentaen-13-one] | < 500 nM |
| Nc1cc(C(F)(F)F)c2nc1-c1nnc(o1)[C@@](O)(C(F)(F)F)CCCCCN(C1C3CC1C3)C2=O (stereo partly drawn) [Compound 92, (6R)-17-Amino-12-(2-bicyclo[1.1.1]pentanyl)-6-hydroxy-6,15-bis(trifluoromethyl)-19-oxa-3,4,12,18-tetrazatricyclo [12.3.1.12,5] nonadeca-1(18),2,4,14,1 6-pentaen-13-one] | < 500 nM |
| CC1(C)CC(N2CCCCC[C@](O)(C(F)(F)F)C3=NN=C(O3)c3nc(c(C(F)(F)F)cc3N)C2=O)C1 [Compound 93, (6R)-17-Amino-12-(3,3-dimethylcyclobutyl)-6-hydroxy-6,15-bis (trifluoromethyl)-19-oxa-3,4,12,18-tetrazatricyclo [12.3.1.12,5] nonadeca-1(18),2,4,14,1 6-pentaen-13-one] | < 500 nM |
| CC1(N2CCCCC[C@](O)(C(F)(F)F)C3=NN=C(O3)c3nc(c(C(F)(F)F)cc3N)C2=O)CC1 [Compound 94, (6R)-17-Amino-6-hydroxy-12-(1-methylcyclopropyl)-6,15-bis (trifluoromethyl)-19-oxa-3,4,12,18-tetrazatricyclo [12.3.1.12,5] nonadeca-1(18),2,4,14,1 6-pentaen-13-one] | < 500 nM |
| Nc1cc(C(F)(F)F)c2nc1-c1nnc(o1)[C@@](O)(C(F)(F)F)CCCCCN(C1CC3(C1)CC(F)(F)C3)C2=O [Compound 95, (6R)-17-Amino-12-(2,2-difluorospiro [3.3]heptan-6-yl)-6-hydroxy-6,15-bis (trifluoromethyl)-19-oxa-3,4,12,18-tetrazatricyclo [12.3.1.12,5] nonadeca-1(18),2,4,14,1 6-pentaen-13-one] | < 500 nM |
| CC1(N2CCCCC[C@](O)(C(F)(F)F)C3=NN=C(O3)c3nc(c(C(F)(F)F)cc3N)C2=O)CC(F)(F)C1 [Compound 96, (6R)-17-Amino-12-(3,3-difluoro-1-methyl-cyclobutyl)-6-hydroxy-6,15-bis (trifluoromethyl)-19-oxa-3,4,12,18-tetrazatricyclo [12.3.1.12,5] nonadeca-1(18),2,4,14,1 6-pentaen-13-one] | < 500 nM |
| CC(C)(C)[C@H]1CC[C@H](N2CCCCC[C@](O)(C(F)(F)F)C3=NN=C(O3)c3nc(c(C(F)(F)F)cc3N)C2=O)CC1 [Compound 97, (6R)-17-Amino-12-(trans-4-tert-butylcyclohexyl)-6-hydroxy-6,15-bis (trifluoromethyl)-19-oxa-3,4,12,18-tetrazatricyclo [12.3.1.12,5] nonadeca-1(18),2,4,14,1 6-pentaen-13-one] | < 500 nM |
| Nc1cc(C(F)(F)F)c2nc1-c1nnc(o1)[C@@](O)(C(F)(F)F)CCCCCN(C1CCOCC1)C2=O [Compound 98, (6R)-17-Amino-6-hydroxy-12-tetrahydropyran-4-yl-6,15-bis (trifluoromethyl)-19-oxa-3,4,12,18-tetrazatricyclo [12.3.1.12,5] nonadeca-1(18),2,4,14,1 6-pentaen-13-one] | < 500 nM |
| Nc1cc(C(F)(F)F)c2nc1-c1nnc(o1)[C@@](O)(C(F)(F)F)CCCCCN(C1CC3(CNC3)C1)C2=O [Compound 99, (6R)-17-Amino-12-(2-azaspiro[3.3]heptan-6-yl)-6-hydroxy-6,15-bis (trifluoromethyl)-19-oxa-3,4,12,18-tetrazatricyclo [12.3.1.12,5] nonadeca-1(18),2,4,14,1 6-pentaen-13-one] | > 1000 nM |
| Nc1cc(C(F)(F)F)c2nc1-c1nnc(o1)[C@@](O)(C(F)(F)F)CCCCCN(C1CCCC1)C2=O [Compound 100, (6R)-17-Amino-12-cyclopentyl-6-hydroxy-6,15-bis (trifluoromethyl)-19-oxa-3,4,12,18-tetrazatricyclo [12.3.1.12,5] nonadeca-1(18),2,4,14,1 6-pentaen-13-one] | < 500 nM |
| Nc1cc(C(F)(F)F)c2nc1-c1nnc(o1)[C@@](O)(C(F)(F)F)CCCCCN(Cc1ccc3c(c1)OC(F)(F)O3)C2=O [Compound 101, (6R)-Amino-12-[(2,2-difluoro-1,3-benzodioxol-5-yl)methyl]-6-hydroxy-6,15-bis (trifluoromethyl)-19-oxa-3,4,12,18-tetrazatricyclo [12.3.1.12,5] nonadeca-1(18),2,4,14,1 6-pentaen-13-one] | < 500 nM |
| Nc1cc(C(F)(F)F)c2nc1-c1nnc(o1)[C@@](O)(C(F)(F)F)CCCCCN(C1CCS(=O)(=O)CC1)C2=O [Compound 102, (6R)-17-Amino-12-(1,1-dioxothian-4-yl)-6-hydroxy-6,15-bis (trifluoromethyl)-19-oxa-3,4,12,18-tetrazatricyclo [12.3.1.12,5] nonadeca-1(18),2,4,14,1 6-pentaen-13-one] | > 1000 nM |
| Nc1cc(C(F)(F)F)c2nc1-c1nnc(o1)[C@@](O)(C(F)(F)F)CCCCCN(C1CS(=O)(=O)C1)C2=O [Compound 103, (6R)-17-Amino-12-(1,1-dioxothietan-3-yl)-6-hydroxy-6,15-bis (trifluoromethyl)-19-oxa-3,4,12,18-tetrazatricyclo [12.3.1.12,5] nonadeca-1(18),2,4,14,1 6-pentaen-13-one] | > 1000 nM |
| C[C@@H](c1ccc(F)cc1)N1CCCCC[C@](O)(C(F)(F)F)C2=NN=C(O2)c2nc(c(C(F)(F)F)cc2N)C1=O [Compound 104, (6R)-17-Amino-12-[(1S)-1-(4-fluorophenyl)ethyl]-6-hydroxy-6,15-bis (trifluoromethyl)-19-oxa-3,4,12,18-tetrazatricyclo [12.3.1.12,5] nonadeca-1(18),2,4,14,1 6-pentaen-13-one] | < 500 nM |
| C[C@H](c1ccc(F)cc1)N1CCCCC[C@](O)(C(F)(F)F)C2=NN=C(O2)c2nc(c(C(F)(F)F)cc2N)C1=O [Compound 105, (6R)-17-Amino-12-[(1R)-1-(4-fluorophenyl)ethyl]-6-hydroxy-6,15-bis (trifluoromethyl)-19-oxa-3,4,12,18-tetrazatricyclo [12.3.1.12,5] nonadeca-1(18),2,4,14,1 6-pentaen-13-one] | < 500 nM |
| Nc1cc(C(F)(F)F)c2nc1-c1nnc(o1)[C@@](O)(C(F)(F)F)CCCCCN(Cc1ccc(OC(F)(F)F)cc1)C2=O [Compound 106, (6R)-17-Amino-6-hydroxy-12-[[4-(trifluoromethoxy)phenyl]methyl]-6,15-bis (trifluorom 19-oxa-ethyl)-3,4,12,18-tetrazatricyclo [12.3.1.12,5] nonadeca-1(18),2,4,14,1 6-pentaen-13-one] | < 500 nM |
| Nc1cc(C(F)(F)F)c2nc1-c1nnc(o1)[C@@](O)(C(F)(F)F)CCCCCN(c1ccccn1)C2=O [Compound 107, (6R)-17-Amino-6-hydroxy-12-(2-pyridyl)-6,15-bis (trifluoromethyl)-19-oxa-3,4,12,18-tetrazatricyclo [12.3.1.12,5] nonadeca-1(18),2,4,14,1 6-pentaen-13-one] | < 500 nM |
| Nc1cc(C(F)(F)F)c2nc1-c1nnc(o1)[C@@](O)(C(F)(F)F)CCCCCN(c1ccccc1)C2=O [Compound 108, (6R)-17-Amino-6-hydroxy-12-phenyl-6,15-bis (trifluorom 19-oxa-ethyl)-3,4,12,18-tetrazatricyclo [12.3.1.12,5] nonadeca-1(18),2,4,14,1 6-pentaen-13-one] | < 500 nM |
